# Reference: patent publication US20120082736A1, “Small-molecule TNF modulator to reduce the side effects of chemotherapy and radiotherapy” (GeneBlue Corporation, priority 2010, published 2012)
# Entries after “also recorded” stand apart in the source; their conditions may differ.
# Experiments:
# [1] = system: mice; conditions: cited from earlier work
# [2] = system: human colon cancer cells (HCT-15); assay: Effect of UTL-5g pretreatment on antitumor effect of cisplatin, HCT-15 tumors in SCID mice (Example 4); type: in vivo
# Method: FIG. 7. Effect of UTL-5g pre-treatment on the antitumor effect of cisplatin Group 1, saline, daily ×5 (control); Group 2, cisplatin (2.5 mg/kg) in saline, daily ×5; Group 3, UTL-5g (60 mg/kg) followed by cisplatin (2.5 mg/kg) 30 min later, daily ×5. […] Gp: Group
# In order to qualify UTL-5g as a chemoprotective agent, a therapeutic assessment was conducted to evaluate the effect of UTL-5g on the efficacy of cisplatin. Briefly, 25 SCID mice were randomly divided into 5 groups as below. • Gp 1: Saline daily ×5 (control) • Gp 2: Cisplatin 0.2 mg/mL (2.5 mg/kg), daily ×5 • Gp 3: UTL-5g (60 mg/kg) followed by cisplatin (2.5 mg/kg) 30 min later, daily ×5 • Gp 4: Cisplatin 0.4 mg/mL ([…]) in saline, day 1 only • Gp 5: UTL-5g (60 mg/kg) followed by cisplatin (5 mg/kg) 30 min later, day 1 only
# Cisplatin was dissolved in saline. UTL-5g was prepared in DMSO/Cremophor/propylene glycol/saline as described in previous section. All injections were ip and the injection volume was 0.25 mL. Three days before treatment (Day −2), human colon cancer cells (HCT-15) were injected subcutaneously and bilaterally (1×10^6 cells per site per mouse) in each SCID mouse in all groups and tumor sizes were measured by a caliper every 2-3 days and the animals were sacrificed when tumor reached 1,200 mm^3.
# The % T/C value is used here as the end-point. […]
# [3] = system: TNF-α; assay: TNF-α levels in plasma of cisplatin-treated mice (commercial assay kit, eBioscience); type: in vivo; conditions: UTL-5g 15, 30, 60 mg/kg ip 30 min before cisplatin 2.5 mg/kg, daily ×5; pooled plasma
# Method: FIG. 5. Effect of UTL-5g on TNF-α levels in plasma for mice treated with cisplatin. Gp 1, medium control (saline) only; Gp 2, saline followed by cisplatin (2.5 mg/kg) 30 min later; Gp 3, UTL-5g (15 mg/kg) followed by cisplatin 30 min later; Gp 4, UTL-5g (30 mg/kg) followed by cisplatin 30 min later; Gp 5, UTL-5g (60 mg/kg) followed by cisplatin 30 min later. Y axis represents the relative levels of TNF-α assuming 0% for Gp 1 (Control). Level of TNF-α on the figure is based on the average of 2 readings. […]
# Using the samples from the same animal study, TNF-α levels in plasma were analyzed. […]
# [4] = system: apoptotic liver cells; assay: TUNEL assay for apoptotic liver cells after liver irradiation (Example 8); type: in vivo, mice; conditions: for numbers of TUNEL positive cells induced by irradiation: 15 Gy, relative to non-irradiated controls, irradiated vehicle 4.1
# Method: Mice were pre-treated with various doses of UTL-5g (7.5, 15, 30, and 60 mg/kg, i.p.) or control vehicle at 1 hr prior to liver radiation with 15 Gy. […] Representative liver sections showing TUNEL positive cells (green) counter-stained with […] (4′-6-diamidino-2-phenylindole) for nuclei under fluorescent microscope (40×) (6B). RT: radiation treatment.
# To further analyze the radioprotective effect of UTL-5g, we examined the number of liver apoptotic cells by in situ TUNEL staining At the end of treatment, liver tissue sections were prepared, fixed and stained with TUNEL staining for apoptotic cells. There were “spontaneous” apoptotic liver cells in control animals as detected by TUNEL staining (20/five random fields), approximately 0.2% of total liver cells. […] The radioprotective effect of UTL-5g was dose-dependent.
# [5] = system: TNF-α; assay: Liver TNF-α levels after liver irradiation (ELISA); type: in vivo, mice
# Method: Mice were treated individually with 0.3 mL each of UTL-5g preparations i.p. 1 hr prior to liver irradiation at 15 Gy. Liver TNF-α levels were analyzed by standard ELISA methodology.
# Based on the preliminary studies, UTL-5g was selected for dose-dependent radioprotective studies. In this study, animals were treated with increasing doses of UTL-5g (from 0 to 60 mg/kg) one hr prior to liver irradiation (15 Gy). Two hr after irradiation, animals were sacrificed and serum AST/ALT enzyme activities and liver TNF-α levels were determined. […] For animals pre-treated with UTL-5g at 30 mg/kg, AST/ALT activity levels were lowered from 135/29 to 89/22 Unit/L, and those pre-treated with UTL-5g at 60 mg/kg, AST/ALT levels were reduced from 135/29 to 74/19 Unit/L, respectively.
compound,measurement,setting,value
Cc1cc(C(=O)Nc2ccc(Cl)cc2Cl)no1 [UTL-5g],LD50 (acute toxicity),[1],> 200 mg/kg
same,effect on efficacy of cisplatin,"[2]; UTL-5g 60 mg/kg 30 min before cisplatin 2.5 mg/kg, daily ×5 (Gp 3 vs Gp 2)",increased the efficacy of cisplatin; also recorded: did not have tumor-protective effect and actually increased the efficacy of cisplatin
same,enhancement of efficacy of cisplatin,"[2]; UTL-5g 60 mg/kg 30 min before cisplatin 5 mg/kg, single dose (Gp 5 vs Gp 4)",not observed
same,"TNF-α in plasma, effect of pretreatment",[3],lowered elevated TNF-α in plasma in a dose-dependent manner; also recorded: lowered the elevated levels of blood TNF-α induced by cisplatin in a dose dependent manner
same,"TUNEL positive cells, protective effect","[4]; UTL-5g 7.5 mg/kg i.p. 1 hr prior to 15 Gy, liver 2 hr after",no significant protective effect
same,numbers of TUNEL positive cells induced by irradiation,[4]; UTL-5g 15 mg/kg,3.3 fold
same,numbers of TUNEL positive cells induced by irradiation,[4]; UTL-5g 30 mg/kg,1.8 fold
same,numbers of TUNEL positive cells induced by irradiation,[4]; UTL-5g 60 mg/kg,1.4 fold
same,"number of apoptotic cells in liver, non-irradiated animals","[4]; UTL-5g alone at 30 and 60 mg/kg, no irradiation",slightly increased the number of apoptotic cells
same,"liver TNF-α levels, reduction",[5]; UTL-5g 30 mg/kg i.p. 1 hr prior to liver irradiation 15 Gy,20%
same,"liver TNF-α levels, reduction",[5]; UTL-5g 60 mg/kg i.p. 1 hr prior to liver irradiation 15 Gy,29%
